Entries after “also recorded” stand apart in the source; their conditions may differ.
Columns and labels:
[1] = system: Drosophila Notch N^EC/N^TM heterodimer; test: Tethering of N^EC to N^TM in Notch expressing S2 cells (supernatant Western blot, sucrose density centrifugation); format: cell-based; conditions: for dissociation of N^EC and N^TM: calcium ion chelators
Method: Briefly, Drosophila S2 cells were induced to express Notch with the addition of 0.7 mM CuSO4 for 16 hours; Notch expression was under the control of the metallothionien promoter (Fehon et al., 1990, Cell 61:523-534). The cells were washed once with 20 mM Tris-HCl, 150 mM NaCl, 2 mM CaCl2 (TBS/Ca^2+) and were resuspended in TBS/Ca^2+ or in 20 mM Tris-HCl, 150 mM NaCl. 2 mM EDTA (TBS/EDTA) and incubated for one hour at room temperature under slow rocking. The cells were centrifuged and pelleted and the supernatants were collected for SDS-PAGE and Western blot analysis. The blot was probed with a monoclonal antibody directed to the extracellular domain of Notch, specifically against EGF-like repeats 5-7 of Drosophila Notch (clone C461.3B). This monoclonal was detected using goat anti-mouse horseradish peroxidase secondary antibody and chemiluminescent substrate.
The extracts were sedimented through a 5-20% sucrose gradient in the above-respective buffers (without the protease inhibitors) in a Beckman SW50.1 rotor at 34,000 rpm for 16 hours at 4° C. Fractions were collected and precipitated with 10% trichloroacetic acid. The protein pellets were resuspended in SDS-PAGE sample buffer and analyzed by SDS-PAGE and Western blotting. Blots were probed with a mixture of monoclonal antibodies C461.3B and 9C6 (directed against the intracellular domain of Notch) and detected as described above.

human Notch2 = test: Pulse chase labeling of Notch2 processing in SJ-NB5 cells; format: cell-based; conditions: for breakdown (cleavage, processing) of full-length Notch: [35S] pulse 20 min and chase at 37° C., immunoprecipitated by PGHN, Brefeldin A 10 μg/ml; for appearance of N^EC: pulse labeling
Method: SJ-NB5 cells were grown on 60 mm petri dishes until ˜80% confluent, washed once with PBS, and then incubated in methionine and cysteine free DMEM medium for 1 hr. 100 μCi^35S-translabled Met-Cys (ICN) was added to each plate, pulsed at 37° C. for 20 minutes, and chased for varying times and temperatures. The chase began by adding 2× volume complete medium plus 100 μg/ml cold methionine and cysteine to the plates. For Brefeldin A samples, Brefeldin A was maintained at a final concentration of 10 μg/ml in starvation medium as well as in both pulse and chase. Cells were washed with cold PBS and lysed in lysis buffer (Zagouras et al., 1995, Proc. Natl. Acad. Sci. USA 92:6414-6418) containing 1 mM Pefabloc SC, 0.7 μg/mlpepstatin A, and 0.5 μg/ml leupeptin. Cell lysates were centrifuged at 14,000 rpm for 5 minutes. The supernatants were transferred to fresh tubes and pre-cleared by incubating with 5 μl normal rabbit serum and 50 μl 10% protein A-sephrose CL-4B (Pharmacia LKB) for 1 hr at 4° C. The beads were pelleted by centrifugation and the supernatants were divided into two equal aliquots. One aliquot was immunoprecipitated by incubating with rabbit polyclonal anti-human Notch2 antibody PGHN and 50 μl protein A-sephrose CL-4B for 2-3 hrs or overnight at 4° C. The other aliquot was immunoprecipitated by normal rabbit serum as control. The beads were washed three times in RIPA buffer B (150 mM NaCl, 1% NP40, 0.5% DOC, 0.1% SDS, 50 mM Tris, pH 7.5); washed once in 50 mM Tris-Cl, 150 mM NaCl, pH 7.5; resuspended in 50 μl SDS-sample buffer; boiled; and subjected to a 3-15% gradient SDS-PAGE. The gel was fixed in 25% iso-propanol, 10% acetic acid for 30 minutes, soaked in Amplify™ (Amersham) for 15-30 minutes, dried, and exposed to X-ray film at −70° C.
In an attempt to determine the cellular compartment where Notch is cleaved, pulse labeling analyses were carried out in the presence of drugs that are known to interfere with cellular trafficking.

Notch/Delta = test: Co-immunoprecipitation of N^TM with Delta antibodies after Notch/Delta cell aggregation; format: cell-based, Drosophila; conditions: aggregation disrupted by depleting calcium from the medium; data not shown
Method: Human neuroblastoma (SJ-NB5) cells were grown at 37° C. in an atmosphere of 5% CO2/95% air, in RPMI (Gibco-BRL, Grand Island, N.Y.) supplemented with 10% fetal bovine serum (Gibco BRL, Grand Island, N.Y.), 2 mM L-Glutamine (ICN Biomedicals, Inc., Costa Mesa, Calif.), 100 μg/ml penicillin, and 100 μg/ml streptomycin (ICN Biomedicals, Inc., Costa Mesa, Calif.). Cells were dissociated using phosphate buffered saline (PBS) with 0.25% trypsin and 0.03% EDTA (J. T. Baker, Inc., Phillipsburg, N.J.), and subcultured at ratios of 1:3 to 1:10. HaCat Cells (cultured human keratinocytes) were a gift from Dr. Michael Reiss (Yale University). Aggregation experiments and the maintenance of Drosophila S2 and KC cells were as described in Fehon et al., 1990, Cell 61:523-534.
The biological significance of the heterodimeric Notch form would be questionable if it could not bind ligands. […] If the heterodimeric form interacts with Delta after aggregation then the 110 kd N^TM fragment should co-immunoprecipitate using Delta antibodies.

Structure (SMILES): O[C@H](CS)[C@H](O)CS (racemic) [dithiothreitol (DTT), dithiothreitol]
- sensitivity of the N^EC/N^TM interaction to reducing agents [1]: sensitive

Structure (SMILES): C[C@H]1CCC/C=C/[C@@H]2C[C@H](O)C[C@H]2[C@H](O)/C=C/C(=O)O1 [Brefeldin A]
- breakdown (cleavage, processing) of full-length Notch (human Notch2): effectively blocks the breakdown of full-length Notch; also recorded: blocked; also recorded: inhibit the cleavage of Notch
- appearance of N^EC (human Notch2): is inhibited

Structure (SMILES): O=C(O)CN(CCN(CC(=O)O)CC(=O)O)CC(=O)O [EDTA]
- N^EC in the supernatant of Notch expressing S2 cells ([1]; 2 mM EDTA, Tris-HCl saline buffer, one hour at room temperature, Western blot): N^EC is present in the supernatant
- sedimentation of N^EC and N^TM in sucrose density centrifugation ([1]; S2 cell extracts, TBS/EDTA with 1% Triton X-100, 5-20% sucrose gradient): sediment separately
- dissociation of N^EC and N^TM [1]: dissociate

Structure (SMILES): O=C(O)CN(CCOCCOCCN(CC(=O)O)CC(=O)O)CC(=O)O [EGTA]
- precipitation of N^TM by Delta antibodies (Notch/Delta): fail to efficiently precipitate N^TM
- dissociation of N^EC and N^TM [1]: dissociate

Structure (SMILES): CCN(CC)CCCC(C)Nc1ccnc2cc(Cl)ccc12 (stereo not shown) [chloraquinone]
- breakdown (cleavage, processing) of full-length Notch (human Notch2): do not affect processing
- appearance of N^EC (human Notch2): not inhibited

Structure (SMILES): CC[C@@]1([C@@H]2O[C@@H]([C@H]3O[C@@](O)(CO)[C@H](C)C[C@@H]3C)C[C@@H]2C)CC[C@H]([C@]2(C)CC[C@]3(C[C@H](O)[C@@H](C)[C@@H]([C@@H](C)[C@@H](OC)[C@H](C)C(=O)O)O3)O2)O1 [monensin]
- breakdown (cleavage, processing) of full-length Notch (human Notch2): do not affect processing
- appearance of N^EC (human Notch2): not inhibited

Structure (SMILES): OCCS [β-mercaptoethanol]
- sensitivity of the N^EC/N^TM interaction to reducing agents [1]: sensitive

Source: patent US20110028383A1, “Activated Forms Of Notch And Methods Based Thereon” (priority 1997, published 2011)
